US11226337B2, “Chemoproteomic profiling of protein electrophilic and oxidative post-translational modifications” (Zenagem, LLC, priority 2017, dated 2022)

Legend:
Test in all cases: SILAC RP-ABPP
Type in all cases: cell-based
[1] = biological target: T1, ACOX1 Peroxisomal acylcoenzyme A oxidase 1 (Q15067) (Homo sapiens, UniProt Q15067); conditions: SILAC H/L, HEK293T
T1 construct: In Situ Labelling of Cells with Hydrazine Probes for MS Experiments; endogenous in cells; host or cells: HEK293T and/or MDA-MB-231
T1 sequence (Q15067 whole entry): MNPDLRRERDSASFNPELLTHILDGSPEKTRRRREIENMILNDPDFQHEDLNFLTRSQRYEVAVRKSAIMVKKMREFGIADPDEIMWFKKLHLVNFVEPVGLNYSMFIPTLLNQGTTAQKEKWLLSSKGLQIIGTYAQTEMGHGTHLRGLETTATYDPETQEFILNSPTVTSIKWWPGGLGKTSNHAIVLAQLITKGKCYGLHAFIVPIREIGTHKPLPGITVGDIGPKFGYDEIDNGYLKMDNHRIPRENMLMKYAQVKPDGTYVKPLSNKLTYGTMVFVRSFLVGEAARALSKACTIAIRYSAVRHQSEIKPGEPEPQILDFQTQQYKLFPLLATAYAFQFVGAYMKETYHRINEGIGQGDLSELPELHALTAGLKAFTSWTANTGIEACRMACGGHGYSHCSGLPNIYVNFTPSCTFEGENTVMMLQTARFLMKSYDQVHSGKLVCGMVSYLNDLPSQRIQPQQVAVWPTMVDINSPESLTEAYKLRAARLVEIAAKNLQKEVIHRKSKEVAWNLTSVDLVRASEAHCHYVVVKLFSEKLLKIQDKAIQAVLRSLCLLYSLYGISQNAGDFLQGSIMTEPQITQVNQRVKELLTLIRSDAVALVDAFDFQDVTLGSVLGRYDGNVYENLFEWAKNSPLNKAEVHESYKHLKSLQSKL
Experimental: (§1) For MS-based experiments, labelling was performed in a similar manner as described above in Example 2, maintaining the same concentrations of probes. Modifications to this protocol included using isotopically ‘light’ and ‘heavy’ SILAC cells that were also grown to near complete confluence prior to treatment. Isotopically light cells were treated with the non-clickable hydrazine probe (at the same concentration as the probe in ‘enrichment’ experiments) or the probe in the presence of 10-fold excess non-clickable hydrazine probe as a competitor (in ‘competition’ experiments). Isotopically heavy cells were treated with the probe for both types of experiments. These treatments were performed in non-SILAC media. Following treatments, cells were washed with cold PBS to remove the probe-containing media, harvested by scraping, collected by centrifugation (1,400 g, 3 min, 4° C.), washed again by resuspension in cold PBS and frozen as pellets at −80° C. until use.
(§2) The fractionated equimolar mixture of heavy and light soluble proteomes (1-1.5 mg) was diluted to 1 mL in PBS. Click reactions were scaled accordingly (except for biotin-azide) to maintain final concentrations of 0.1 mM TBTA, 1 mM CuSO4, 100 μM biotin-azide (10 mM in DMSO) and 1 mM TCEP. The mixture was vortexed and placed on a rotator at ambient temperature for 1 hour. Sequential addition of and mixture with pre-chilled methanol (MeOH, 2 mL), chloroform (CHCl3, 0.5 mL) and PBS (1 mL) on ice quenched the reaction. The precipitated proteome was centrifuged (5,000 g, 10 min, 4° C.) to fractionate the protein interphase from the organic and aqueous solvent layers. The protein pellet was washed with cold 1:1 MeOH:CHCl3 (3×1 mL), mildly sonicated in cold 4:1 MeOH:CHCl3 (2.5 mL) and pelleted once more by centrifugation (5,000 g, 10 min, 4° C.) to ensure click reagents were efficiently removed.
(§3) Heavy and light parent ion chromatograms associated with successfully identified peptides were extracted and compared using CIMAGE software as previously described^69. At least one ion of a co-eluting heavy-light pair must be accurately identified from a fragmentation event that occurred within the retention time window (±10 min) of parent ion elution. To ensure that the correct pair of peaks is quantified, chromatograms are extracted within a 10 ppm error tolerance of the predicted m/z, the signal-to-noise ratio must be >2.5 and the ‘co-elution correlation score’ and ‘envelope correlation score’ must have R^2 values ≥0.8. In addition, peptides detected as ‘singletons,’ where only the heavy ion of a peptide pair was identified, but for which passed all other filtering parameters, are given a default assigned ratio of ‘20,’ which is defined as any measured ratio that is ≥20.
(§4) To further eliminate false positives and any stochastic variability in the data, protein ratios were then determined by the median peptide ratio derived from three or more unique quantified peptides. Protein ratios that complied with these criteria from a single experiment were then averaged with ratios acquired from ≥3 replicates to provide final values for each type of experiment in both cell lines with both probes. […] Most importantly, there are no robustly measured ratios for proteins identified as probe 1 targets that had measured ratios of ˜1 with probe 2. Probe targets in HEK293T and MDA-MB-231 cells represent data combined from ≥3 independent biological replicates with each cell type performed with several independent batches of synthesized probes over a period of almost two years.
(§5) Analogous experiments were also performed with the aryl hydrazine probe 2 (1 mM, 0.5 hour), which furnished a larger list of high-reactivity proteins (33 in total; Table 3) that contained several of the targets of probe 1 (compared in Table 4), as well as additional proteins that may reflect an expanded chemical reactivity for probe 2.

[2] = biological target: T2, ALKBH1 Alkylated DNA repair protein alkB (Q13686) (Homo sapiens, UniProt Q13686); conditions: SILAC H/L, HEK293T
T2 construct: In Situ Labelling of Cells with Hydrazine Probes for MS Experiments; endogenous in cells
Experimental: as §1, §2, §3, §4, §5

[3] = biological target: T3, ASAH1 Acid ceramidase (Q13510) (Homo sapiens, UniProt Q13510); conditions: SILAC H/L, MDA-MB-231
T3 construct: endogenous in cells; host or cells: HEK293T or MDA-MB-231
Experimental: as §1, §2, §3, §4, §5

[4] = biological target: T4, BCAT1 Branchedchainaminoacid (P54687) (Homo sapiens, UniProt P54687); conditions: SILAC H/L, MDA-MB-231
T4 construct: endogenous in cells; host or cells: HEK293T or MDA-MB-231
T4 sequence (P54687 whole entry): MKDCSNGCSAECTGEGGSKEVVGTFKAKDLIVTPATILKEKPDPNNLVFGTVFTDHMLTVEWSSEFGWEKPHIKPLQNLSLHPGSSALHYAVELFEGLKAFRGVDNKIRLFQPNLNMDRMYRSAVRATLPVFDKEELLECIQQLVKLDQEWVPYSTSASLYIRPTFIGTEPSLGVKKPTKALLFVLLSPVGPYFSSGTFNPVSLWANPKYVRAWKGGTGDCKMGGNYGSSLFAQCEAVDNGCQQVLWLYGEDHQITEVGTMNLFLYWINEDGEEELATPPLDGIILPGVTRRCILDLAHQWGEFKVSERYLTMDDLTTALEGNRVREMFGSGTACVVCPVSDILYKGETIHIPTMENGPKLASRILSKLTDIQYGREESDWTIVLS
Experimental: as §1, §2, §3, §4, §5

[5] = biological target: T5, CMBL Carboxymethylenebutenolidase homolog (Q96DG6) (Homo sapiens, UniProt Q96DG6); conditions: SILAC H/L, HEK293T
T5 construct: In Situ Labelling of Cells with Hydrazine Probes for MS Experiments; endogenous in cells; host or cells: HEK293T and/or MDA-MB-231
T5 sequence (Q96DG6 whole entry): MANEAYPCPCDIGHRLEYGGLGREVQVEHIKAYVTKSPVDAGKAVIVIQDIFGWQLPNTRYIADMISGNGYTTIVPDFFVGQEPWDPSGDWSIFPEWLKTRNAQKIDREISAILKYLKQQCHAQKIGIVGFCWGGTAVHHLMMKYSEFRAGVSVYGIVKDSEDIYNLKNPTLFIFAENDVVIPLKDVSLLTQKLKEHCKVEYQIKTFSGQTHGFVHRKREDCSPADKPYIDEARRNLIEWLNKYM
Experimental: as §1, §2, §3, §4, §5

[6] = biological target: T6, CPD Carboxypeptidase D (O75976) (Homo sapiens, UniProt O75976); conditions: SILAC H/L, MDA-MB-231
T6 construct: In Situ Labelling of Cells with Hydrazine Probes for MS Experiments; endogenous in cells; host or cells: HEK293T and/or MDA-MB-231
T6 sequence (O75976 32-1380): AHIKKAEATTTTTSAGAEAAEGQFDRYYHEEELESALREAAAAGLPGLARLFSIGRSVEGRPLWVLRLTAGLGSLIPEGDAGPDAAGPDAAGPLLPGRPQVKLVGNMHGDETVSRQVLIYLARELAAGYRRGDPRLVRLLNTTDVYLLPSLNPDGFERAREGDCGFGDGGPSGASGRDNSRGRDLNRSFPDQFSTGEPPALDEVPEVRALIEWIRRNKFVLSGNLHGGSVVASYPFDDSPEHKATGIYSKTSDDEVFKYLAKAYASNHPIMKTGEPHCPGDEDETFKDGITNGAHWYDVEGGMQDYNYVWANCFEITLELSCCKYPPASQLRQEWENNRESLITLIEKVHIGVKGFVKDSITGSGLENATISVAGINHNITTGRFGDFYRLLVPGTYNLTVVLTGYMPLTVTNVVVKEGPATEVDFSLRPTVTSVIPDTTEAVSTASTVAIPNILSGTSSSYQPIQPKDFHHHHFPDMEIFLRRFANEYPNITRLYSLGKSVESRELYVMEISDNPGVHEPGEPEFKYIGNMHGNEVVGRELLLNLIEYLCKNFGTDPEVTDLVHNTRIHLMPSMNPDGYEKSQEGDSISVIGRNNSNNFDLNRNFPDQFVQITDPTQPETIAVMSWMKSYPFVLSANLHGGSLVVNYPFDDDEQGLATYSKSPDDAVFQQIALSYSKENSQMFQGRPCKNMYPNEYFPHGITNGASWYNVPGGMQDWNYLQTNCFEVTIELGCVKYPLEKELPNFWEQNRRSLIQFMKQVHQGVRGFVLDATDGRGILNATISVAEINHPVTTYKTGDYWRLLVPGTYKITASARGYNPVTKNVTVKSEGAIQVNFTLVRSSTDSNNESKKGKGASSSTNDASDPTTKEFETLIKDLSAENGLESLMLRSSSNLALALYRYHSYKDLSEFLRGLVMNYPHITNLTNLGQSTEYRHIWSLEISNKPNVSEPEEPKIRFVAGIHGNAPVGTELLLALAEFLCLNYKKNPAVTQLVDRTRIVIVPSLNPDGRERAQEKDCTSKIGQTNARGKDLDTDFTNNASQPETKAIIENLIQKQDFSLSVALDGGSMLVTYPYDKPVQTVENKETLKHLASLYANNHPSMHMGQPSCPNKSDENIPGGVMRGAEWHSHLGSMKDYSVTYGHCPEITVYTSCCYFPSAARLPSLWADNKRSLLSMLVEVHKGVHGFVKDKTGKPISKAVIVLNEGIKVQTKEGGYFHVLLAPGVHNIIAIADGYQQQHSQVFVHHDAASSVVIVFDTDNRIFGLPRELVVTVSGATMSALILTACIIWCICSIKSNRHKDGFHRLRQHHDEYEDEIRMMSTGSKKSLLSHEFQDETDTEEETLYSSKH
Experimental: as §1, §2, §3, §4, §5

[7] = biological target: T7, CYCS Cytochrome c (P99999) (Homo sapiens, UniProt P99999); conditions: SILAC H/L, HEK293T
T7 construct: In Situ Labelling of Cells with Hydrazine Probes for MS Experiments; endogenous in cells; host or cells: HEK293T and/or MDA-MB-231
Experimental: as §1, §2, §3, §4, §5

[8] = biological target: T8, ERAP1 Endoplasmic reticulum aminopeptidase (Q9NZ08) (Homo sapiens, UniProt Q9NZ08); conditions: SILAC H/L, MDA-MB-231
T8 construct: endogenous in cells; host or cells: HEK293T or MDA-MB-231
T8 sequence (Q9NZ08 whole entry): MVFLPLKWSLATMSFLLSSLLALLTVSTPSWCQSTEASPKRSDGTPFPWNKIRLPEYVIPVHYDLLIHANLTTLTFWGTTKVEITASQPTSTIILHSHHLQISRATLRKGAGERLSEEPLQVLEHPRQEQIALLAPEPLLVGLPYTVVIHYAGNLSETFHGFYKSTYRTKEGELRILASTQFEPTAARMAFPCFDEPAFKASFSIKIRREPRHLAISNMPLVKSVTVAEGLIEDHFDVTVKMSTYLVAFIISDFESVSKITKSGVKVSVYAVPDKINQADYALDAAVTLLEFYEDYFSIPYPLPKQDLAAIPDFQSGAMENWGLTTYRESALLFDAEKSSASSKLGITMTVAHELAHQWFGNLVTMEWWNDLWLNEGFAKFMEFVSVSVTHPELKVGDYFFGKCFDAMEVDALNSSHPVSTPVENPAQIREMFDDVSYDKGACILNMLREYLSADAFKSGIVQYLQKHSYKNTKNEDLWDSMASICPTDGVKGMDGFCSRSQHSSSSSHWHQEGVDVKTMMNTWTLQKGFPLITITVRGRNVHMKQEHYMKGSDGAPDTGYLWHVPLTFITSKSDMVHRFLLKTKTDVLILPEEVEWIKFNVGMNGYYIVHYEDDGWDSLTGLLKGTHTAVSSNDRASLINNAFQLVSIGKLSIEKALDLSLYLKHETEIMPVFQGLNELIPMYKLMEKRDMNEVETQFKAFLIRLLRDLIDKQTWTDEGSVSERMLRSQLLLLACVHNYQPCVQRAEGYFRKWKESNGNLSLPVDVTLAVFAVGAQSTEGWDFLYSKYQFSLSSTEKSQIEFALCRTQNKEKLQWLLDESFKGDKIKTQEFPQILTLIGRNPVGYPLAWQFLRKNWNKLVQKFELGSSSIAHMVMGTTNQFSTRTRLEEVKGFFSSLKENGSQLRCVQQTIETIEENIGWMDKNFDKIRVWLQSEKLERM
Experimental: as §1, §2, §3, §4, §5

[9] = biological target: T9, HMOX2 Heme oxygenase 2 (P30519) (Homo sapiens, UniProt P30519); conditions: SILAC H/L, HEK293T
T9 construct: In Situ Labelling of Cells with Hydrazine Probes for MS Experiments; endogenous in cells; host or cells: HEK293T and/or MDA-MB-231
Experimental: as §1, §2, §3, §4, §5

[10] = biological target: T10, MMP14 Matrix metalloproteinase14 (P50281) (Homo sapiens, UniProt P50281); conditions: SILAC H/L, MDA-MB-231
T10 construct: endogenous in cells; host or cells: HEK293T or MDA-MB-231
Experimental: as §1, §2, §3, §4, §5

[11] = biological target: T11, NAGA AlphaNacetylgalactosaminidase (P17050) (Homo sapiens, UniProt P17050); conditions: SILAC H/L, MDA-MB-231
T11 construct: endogenous in cells; host or cells: HEK293T or MDA-MB-231
T11 sequence (P17050 18-411): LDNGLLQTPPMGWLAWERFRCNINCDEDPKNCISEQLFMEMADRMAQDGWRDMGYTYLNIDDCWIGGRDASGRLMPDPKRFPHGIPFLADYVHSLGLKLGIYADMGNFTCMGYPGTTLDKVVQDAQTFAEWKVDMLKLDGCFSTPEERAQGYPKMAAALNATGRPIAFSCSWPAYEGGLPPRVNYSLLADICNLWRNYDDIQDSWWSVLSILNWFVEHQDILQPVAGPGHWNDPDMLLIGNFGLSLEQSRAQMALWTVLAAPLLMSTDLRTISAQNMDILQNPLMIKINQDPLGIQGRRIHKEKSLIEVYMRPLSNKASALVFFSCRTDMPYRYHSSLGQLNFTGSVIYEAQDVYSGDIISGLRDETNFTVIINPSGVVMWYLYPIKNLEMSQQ
Experimental: as §1, §2, §3, §4, §5

[12] = biological target: T12, P4HA2 Prolyl 4hydroxylase subunit alpha2 (O15460) (Homo sapiens, UniProt O15460); conditions: SILAC H/L, MDA-MB-231
T12 construct: endogenous in cells; host or cells: HEK293T or MDA-MB-231
T12 sequence (O15460 22-535): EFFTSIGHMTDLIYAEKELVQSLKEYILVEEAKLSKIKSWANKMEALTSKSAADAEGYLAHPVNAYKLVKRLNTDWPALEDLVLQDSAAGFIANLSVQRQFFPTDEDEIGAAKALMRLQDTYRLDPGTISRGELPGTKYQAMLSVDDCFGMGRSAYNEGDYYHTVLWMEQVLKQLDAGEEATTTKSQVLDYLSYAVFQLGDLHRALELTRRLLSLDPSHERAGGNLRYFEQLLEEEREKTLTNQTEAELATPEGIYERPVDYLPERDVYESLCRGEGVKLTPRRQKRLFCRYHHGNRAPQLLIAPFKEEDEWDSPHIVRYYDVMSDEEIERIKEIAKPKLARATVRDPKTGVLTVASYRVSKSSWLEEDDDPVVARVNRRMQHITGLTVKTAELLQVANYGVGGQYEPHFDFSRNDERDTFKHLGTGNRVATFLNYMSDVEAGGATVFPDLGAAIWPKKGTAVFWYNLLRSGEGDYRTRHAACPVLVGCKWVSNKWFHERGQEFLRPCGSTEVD
T12 sequence (P07237 18-508 partner): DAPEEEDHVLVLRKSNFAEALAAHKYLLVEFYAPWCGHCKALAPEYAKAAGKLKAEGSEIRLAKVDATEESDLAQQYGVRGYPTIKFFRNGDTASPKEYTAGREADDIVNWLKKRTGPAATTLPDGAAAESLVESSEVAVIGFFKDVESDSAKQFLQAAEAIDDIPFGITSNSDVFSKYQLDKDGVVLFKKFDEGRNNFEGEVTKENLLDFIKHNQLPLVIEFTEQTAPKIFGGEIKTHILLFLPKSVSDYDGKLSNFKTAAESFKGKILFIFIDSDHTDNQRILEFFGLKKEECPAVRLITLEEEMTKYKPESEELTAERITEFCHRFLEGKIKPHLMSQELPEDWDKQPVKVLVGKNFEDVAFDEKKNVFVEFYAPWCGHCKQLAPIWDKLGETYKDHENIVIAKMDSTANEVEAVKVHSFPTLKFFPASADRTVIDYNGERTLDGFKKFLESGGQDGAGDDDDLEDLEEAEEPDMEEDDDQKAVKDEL
Experimental: as §1, §2, §3, §4, §5

[13] = biological target: T13, PLOD2 Procollagenlysine, 2oxoglutarate (O00469) (Homo sapiens, UniProt O00469); conditions: SILAC H/L, MDA-MB-231
T13 construct: endogenous in cells; host or cells: HEK293T or MDA-MB-231
Experimental: as §1, §2, §3, §4, §5

[14] = biological target: T14, XPNPEP3 Probable XaaPro aminopeptidase 3 (Q9NQH7) (Homo sapiens, UniProt Q9NQH7); conditions: SILAC H/L, HEK293T
T14 construct: In Situ Labelling of Cells with Hydrazine Probes for MS Experiments; endogenous in cells; host or cells: HEK293T and/or MDA-MB-231
Experimental: as §1, §2, §3, §4, §5

C#CCCNC(=O)c1ccc(NN)cc1.Cl [probe 2, N-(but-3-yn-1-yl)-4-hydrazinylbenzamide hydrochloride] gave an enrichment ratioavg ([1]; probe 2 1 mM 0.5 h vs probe 4) of 19, a competition ratioavg ([1]; probe 2 vs probe 2+10x probe 4) of 2 and an enrichment ratioavg ([2]; probe 2 1 mM 0.5 h vs probe 4) of 20. It also gave a competition ratioavg ([2]; probe 2 vs probe 2+10x probe 4) of 8, an enrichment ratioavg ([3]; probe 2 1 mM 0.5 h vs probe 4) of 20 and a competition ratioavg ([3]; probe 2 vs probe 2+10x probe 4) of 4. It also gave an enrichment ratioavg ([4]; probe 2 1 mM 0.5 h vs probe 4) of 20, a competition ratioavg ([4]; probe 2 vs probe 2+10x probe 4) of 2 and an enrichment ratioavg ([5]; probe 2 1 mM 0.5 h vs probe 4) of 18. The competition ratioavg ([5]; probe 2 vs probe 2+10x probe 4) was 3, the enrichment ratioavg ([6]; probe 2 1 mM 0.5 h vs probe 4) was 20 and the competition ratioavg ([6]; probe 2 vs probe 2+10x probe 4) was 15. The enrichment ratioavg ([7]; probe 2 1 mM 0.5 h vs probe 4) was 7, the competition ratioavg ([7]; probe 2 vs probe 2+10x probe 4) was 0 and the enrichment ratioavg ([8]; probe 2 1 mM 0.5 h vs probe 4) was 8. It also gave a competition ratioavg ([8]; probe 2 vs probe 2+10x probe 4) of 4, an enrichment ratioavg ([9]; probe 2 1 mM 0.5 h vs probe 4) of 20 and a competition ratioavg ([9]; probe 2 vs probe 2+10x probe 4) of 5. It also gave an enrichment ratioavg ([10]; probe 2 1 mM 0.5 h vs probe 4) of 10, a competition ratioavg ([10]; probe 2 vs probe 2+10x probe 4) of 3 and an enrichment ratioavg ([11]; probe 2 1 mM 0.5 h vs probe 4) of 17. For the same compound, the competition ratioavg ([11]; probe 2 vs probe 2+10x probe 4) was 3, the enrichment ratioavg ([12]; probe 2 1 mM 0.5 h vs probe 4) was 20 and the competition ratioavg ([12]; probe 2 vs probe 2+10x probe 4) was 3. The enrichment ratioavg ([13]; probe 2 1 mM 0.5 h vs probe 4) was 6, the competition ratioavg ([13]; probe 2 vs probe 2+10x probe 4) was 2 and the enrichment ratioavg ([14]; probe 2 1 mM 0.5 h vs probe 4) was 20. The competition ratioavg ([14]; probe 2 vs probe 2+10x probe 4) was 4.
